row,SMILES,melting point
1,"O=C(N[C@@H](Cc1ccc(OCc2ccsc2)cc1)C(=O)O)c1cn2cc(-c3ccc(Cl)cc3)ccc2n1 [Example E2, N-{[6-(4-Chlorophenyl)imidazo[1,2-a]pyridin-2-yl]carbonyl}-O-(3-thienylmethyl)-L-tyrosine]",203 °C
2,"O=C(N[C@@H](Cc1ccc(OCc2ccccc2)cc1)C(=O)O)c1cn2ccc(-c3ccc(Cl)cc3)cc2n1 [Example E8, O-Benzyl-N-{[7-(4-chlorophenyl)imidazo[1,2-a]pyridin-2-yl]carbonyl}tyrosine]",255 °C
3,"O=C(NC(Cc1ccc(OCc2ccccc2)cc1)c1nnn[nH]1)c1cn2cc(-c3ccc(Cl)cc3)ccc2n1 (centres unmarked) [Example E14, N-[2-[4-(Benzyloxy)phenyl]-1-(1H-tetrazol-5-yl)ethyl]-6-(4-chlorophenyl)imidazo[1,2-a]pyridine-2-carboxamide]",241 °C
4,"O=C(N[C@@H](Cc1ccc(OCc2ccccc2)cc1)C(=O)O)c1cn2cc(-c3cccnc3)ccc2n1 [Example E20, O-Benzyl-N-[(6-(pyridin-3-yl)imidazo[1,2-a]pyridine-2-yl)carbonyl]tyrosine]",244 °C
5,"O=C(N[C@@H](Cc1ccc(OCc2ccccc2)cc1)C(=O)O)c1cn2cc(-c3ccncc3)ccc2n1 [Example E21, O-Benzyl-N-[(6-(pyridine-4-yl)imidazo[1,2-a]pyridin-2-yl)carbonyl]tyrosine]",268 °C
6,"O=C(N[C@@H](Cc1ccc(OCc2ccoc2)cc1)C(=O)O)c1cn2nc(-c3ccc(Cl)cc3)ccc2n1 [Example E32, N-{[6-(4-Chlorophenyl)imidazo[1,2-b]pyridazin-2-yl]carbonyl}-O-(3-furylmethyl)tyrosine]",220 °C
7,"O=C(N[C@@H](Cc1ccc(OCc2ccccc2)cc1)C(=O)O)c1cn2cc(/C=C/c3ccccc3)ccc2n1 [Example E34, O-Benzyl-N-({6-[(E)-2-phenylethenyl]imidazo[1,2-a]pyridin-2-yl}carbonyl)tyrosine]",262 to 263 °C
8,"O=C(O)CN(Cc1ccc(OCc2ccccc2)cc1)C(=O)c1cn2cc(-c3ccc(Cl)cc3)ccc2n1 [Example E39, N-[4-(Benzyloxy)benzyl]-N-{[6-(4-chlorophenyl)imidazo[1,2-a]pyridin-2-yl]carbonyl}glycine]",213 to 214 °C
9,"O=C(N[C@@H](Cc1ccc(OCc2ccccc2)cc1)C(=O)O)c1cn2cc(-c3ccc(Cl)cc3Cl)ccc2n1 [Example E40, O-Benzyl-N-{[6-(2,4-dichlorophenyl)imidazo[1,2-a]pyridin-2-yl]carbonyl}tyrosine]",237 to 239 °C
10,O=C(NC(Cc1ccc(OCc2ccccc2)cc1)C(=O)O)c1cn2cc(-c3ccc(OC(F)(F)F)cc3)ccc2n1 (centres unmarked) [Example E44],270 to 271 °C
11,"COc1cc(F)c(-c2ccc3nc(C(=O)N[C@@H](Cc4ccc(OCc5ccccc5)cc4)C(=O)O)cn3c2)c(F)c1 [Example E46, O-Benzyl-N-{[6-(2,6-difluoro-4-methoxyphenyl)imidazo[1,2-a]pyridin-2-yl]carbonyl}tyrosine]",219 °C
12,"O=C(N[C@@H](Cc1ccc(OCc2ccccc2)cc1)C(=O)O)c1cn2ccc(-c3ccc(Cl)cc3)cc2n1 [Example E56, O-Benzyl-N-{[7-(4-chlorophenyl)imidazo[1,2-a]pyridin-2-yl]carbonyl}-L-tyrosine]",248 to 249 °C
13,"O=C(N[C@@H](Cc1ccc(OCc2ccccc2)cc1)C(=O)O)c1cn2ccc(C#Cc3ccccc3)cc2n1 [Example E58, O-Benzyl-N-{[7-(phenylethynyl)imidazo[1,2-a]pyridin-2-yl]carbonyl}tyrosine]",243 °C (dec.)
14,O=C(NC(Cc1ccc(OCc2ccc(F)cc2)cc1)C(=O)O)c1cn2ccc(C#Cc3ccccc3)cc2n1 (centres unmarked) [Example E62],243 °C (dec.)
15,"O=C(N[C@@H](Cc1ccc(OCc2ccc(C(F)(F)F)cc2)cc1)C(=O)O)c1cn2ccc(-c3ccc(Cl)cc3)cc2n1 [Example E66, N-{[7-(4-Chlorophenyl)imidazo[1,2-a]pyridin-2-yl]carbonyl}-O-[4-(trifluoromethyl)benzyl]tyrosine]",263 °C

# The next lines start with the values.
row,melting point,SMILES
1,252 to 253 °C,"O=C(N[C@@H](Cc1ccc(OCc2ccccc2)cc1)C(=O)O)c1cn2cc(-c3ccc(Cl)cc3)cnc2n1 [Example E4, O-Benzyl-N-{[6-(4-chlorophenyl)imidazo[1,2-a]pyrimidin-2-yl]carbonyl}tyrosine]"
2,273 °C,O=C(NC(Cc1ccc(OCc2ccccc2F)cc1)C(=O)O)c1cn2cc(-c3ccc(Cl)cc3)ccc2n1 (centres unmarked) [Example E6]
3,267 °C,O=C(NC(Cc1ccc(OCc2ccc(F)cc2)cc1)C(=O)O)c1cn2cc(-c3ccc(Cl)cc3)ccc2n1 (centres unmarked) [Example E7]
4,252 °C,O=C(NC(Cc1ccc(OCc2cccc(F)c2)cc1)C(=O)O)c1cn2cc(-c3ccc(Cl)cc3)ccc2n1 (centres unmarked) [Example E10]
5,266 °C,"O=C(N[C@@H](Cc1ccc(F)cc1)C(=O)O)c1cn2cc(-c3ccc(Cl)cc3)ccc2n1 [Example E11, N-{[6-(4-Chlorophenyl)imidazo[1,2-a]pyridin-2-yl]carbonyl}-4-fluorophenylalanine]"
6,206 °C,"O=C(O)CN(Cc1ccc(OCc2ccc(F)cc2)cc1)C(=O)c1cn2cc(-c3ccc(Cl)cc3)ccc2n1 [Example E13, N-{[6-(4-Chlorophenyl)imidazo[1,2-a]pyridin-2-yl]carbonyl}-N-{4-[(4-fluorobenzyl)oxy]benzyl}glycine]"
7,186 °C,"O=C(NC(Cc1ccc(OCc2ccccc2)cc1)c1nnn[nH]1)c1cn2nc(-c3ccc(Cl)cc3)ccc2n1 (centres unmarked) [Example E15, N-[2-[4-(Benzyloxy)phenyl]-1-(1H-tetrazol-5-yl)ethyl]-6-(4-chlorophenyl)imidazo[1,2-b]pyridazine-2-carboxamide]"
8,276 °C,"O=C(N[C@@H](Cc1ccc(OCC2CC2)cc1)C(=O)O)c1cn2cc(-c3ccc(Cl)cc3)ccc2n1 [Example E17, N-{[6-(4-Chlorophenyl)imidazo[1,2-a]pyridin-2-yl]carbonyl}-O-(cyclopropylmethyl)tyrosine]"
9,167 °C,"O=C(NC(Cc1ccc(OCc2ccccc2)cc1)c1noc(=O)[nH]1)c1cn2cc(-c3ccc(Cl)cc3)ccc2n1 (centres unmarked) [Example E30, N-[2-[4-(Benzyloxy)phenyl]-1-(5-oxo-4,5-dihydro-1,2,4-oxadiazol-3-yl)ethyl]-6-(4-chlorophenyl)imidazo[1,2-a]pyridine-2-carboxamide]"
10,262 °C,"O=C(N[C@@H](Cc1ccc(OCc2ccoc2)cc1)C(=O)O)c1cn2cc(-c3ccc(Cl)cc3)ccc2n1 [Example E31, N-{[6-(4-Chlorophenyl)imidazo[1,2-a]pyridin-2-yl]carbonyl}-O-(3-furylmethyl)tyrosine]"
11,243 °C,"O=C(N[C@@H](Cc1ccc(OCc2ccoc2)cc1)C(=O)O)c1cn2ccc(-c3ccc(Cl)cc3)cc2n1 [Example E33, N-{[7-(4-Chlorophenyl)imidazo[1,2-a]pyridin-2-yl]carbonyl}-O-(3-furylmethyl)tyrosine]"
12,248 to 249 °C,"Cc1cc2nc(C(=O)N[C@@H](Cc3ccc(OCc4ccccc4)cc3)C(=O)O)cn2cc1-c1ccc(Cl)cc1 [Example E35, O-Benzyl-N-{[6-(4-chlorophenyl)-7-methylimidazo[1,2-a]pyridin-2-yl]carbonyl}tyrosine]"
13,250 to 251 °C,Cc1cc2nc(C(=O)NC(Cc3ccc(OCc4ccccc4)cc3)C(=O)O)cn2c(C)c1-c1ccc(Cl)cc1 (centres unmarked) [Example E36]
14,262 to 263 °C,"COc1ccc(/C=C/c2ccc3nc(C(=O)N[C@@H](Cc4ccc(OCc5ccccc5)cc4)C(=O)O)cn3c2)cc1 [Example E43, O-Benzyl-N-({6-[(E)-2-(4-methoxyphenyl)ethenyl]imidazo[1,2-a]pyridin-2-yl}carbonyl)tyrosine]"
15,241 to 243 °C,"O=C(N[C@@H](Cc1ccc(OCc2ccccc2)cc1)C(=O)O)c1ccc2nc(-c3ccc(Cl)cc3)c(Cl)n2c1 [Example E50, O-Benzyl-N-{[3-chloro-2-(4-chlorophenyl)imidazo[1,2-a]pyridin-6-yl]carbonyl}tyrosine]"
16,186 °C,"O=C(O)CN(Cc1ccc(OCc2ccccc2)cc1)C(=O)c1cn2ccc(-c3ccc(Cl)cc3)cc2n1 [Example E52, N-[4-(Benzyloxy)benzyl]-N-{[7-(4-chlorophenyl)imidazo[1,2-a]pyridin-2-yl]carbonyl}glycine]"
17,187 °C,O=C(O)CN(Cc1ccc(OCc2ccsc2)cc1)C(=O)c1cn2ccc(-c3ccc(Cl)cc3)cc2n1 [Example E53]
18,244 to 245 °C,"Cc1c(-c2ccc(Cl)cc2)nc2ccc(C(=O)N[C@@H](Cc3ccc(OCc4ccccc4)cc3)C(=O)O)cn12 [Example E55, O-Benzyl-N-{[2-(4-chlorophenyl)-3-methylimidazo[1,2-a]pyridin-6-yl]carbonyl}tyrosine]"
19,245 to 246 °C,"Cc1cccc(COc2ccc(C[C@H](NC(=O)c3cn4ccc(-c5ccc(Cl)cc5)cc4n3)C(=O)O)cc2)c1 [Example E60, N-{[7-(4-Chlorophenyl)imidazo[1,2-a]pyridin-2-yl]carbonyl}-O-(3-methylbenzyl)tyrosine]"
20,239 to 240 °C,"COc1cccc(COc2ccc(C[C@H](NC(=O)c3cn4ccc(-c5ccc(Cl)cc5)cc4n3)C(=O)O)cc2)c1 [Example E61, N-{[7-(4-Chlorophenyl)imidazo[1,2-a]pyridin-2-yl]carbonyl)-O-(3-methoxybenzyl)tyrosine]"
